Experimental data reported in the NIST ThermoML archive (doi:10.1021/je050010l).
± gives the expanded uncertainty stated by the source.

What was measured:
[1] = 100.8 kPa, Liquid; for viscosity: Capillary tube (Ostwald / Ubbelohde) method
[2] = refractive index (Na D-line) (dimensionless); conditions: 101.33 kPa, Liquid, Standard Abbe refractometry
[3] = refractive index (Na D-line) (dimensionless); xn = mol fraction of the nth substance listed; conditions: 100.8 kPa, Liquid, Standard Abbe refractometry
[4] = xn = mol fraction of the nth substance listed; conditions: 100.8 kPa, Liquid; for viscosity: Capillary tube (Ostwald / Ubbelohde) method

CC(C)CC(C)(C)C [2,2,4-trimethylpentane]
mass density ([1]; 288.15 K): 695.95 ± 0.31 kg/m3 | viscosity ([1]; 288.15 K): 0.537 ± 0.005 mPa·s | mass density ([1]; 298.15 K): 687.74 ± 0.31 kg/m3 | viscosity ([1]; 298.15 K): 0.48 ± 0.004 mPa·s | mass density ([1]; 308.15 K): 679.41 ± 0.32 kg/m3 | viscosity ([1]; 308.15 K): 0.432 ± 0.004 mPa·s | refractive index ([2]; 288.15 K): 1.39404 ± 0.00031 | refractive index ([2]; 298.15 K): 1.389 ± 0.00031 | refractive index ([2]; 308.15 K): 1.38395 ± 0.00031

CC(C)=O [acetone]
mass density ([1]; 288.15 K): 796.87 ± 0.22 kg/m3 | viscosity ([1]; 288.15 K): 0.334 ± 0.003 mPa·s | mass density ([1]; 298.15 K): 785.47 ± 0.23 kg/m3 | viscosity ([1]; 298.15 K): 0.302 ± 0.003 mPa·s | mass density ([1]; 308.15 K): 773.91 ± 0.24 kg/m3 | viscosity ([1]; 308.15 K): 0.274 ± 0.003 mPa·s | refractive index ([2]; 288.15 K): 1.36152 ± 0.00031 | refractive index ([2]; 298.15 K): 1.35605 ± 0.00031 | refractive index ([2]; 308.15 K): 1.35057 ± 0.00031

CC(C)=O [acetone] + CC(C)CC(C)(C)C
refractive index ([3]; 288.15 K, x1 = 1): 1.36152 ± 0.00031 | refractive index ([3]; 298.15 K, x1 = 1): 1.35605 ± 0.00031 | refractive index ([3]; 308.15 K, x1 = 1): 1.35057 ± 0.00031 | viscosity ([4]; 288.15 K, x1 = 1): 0.334 ± 0.003 mPa·s | mass density ([4]; 288.15 K, x1 = 1): 796.87 ± 0.22 kg/m3 | viscosity ([4]; 298.15 K, x1 = 1): 0.302 ± 0.003 mPa·s | mass density ([4]; 298.15 K, x1 = 1): 785.47 ± 0.23 kg/m3 | viscosity ([4]; 308.15 K, x1 = 1): 0.274 ± 0.003 mPa·s | mass density ([4]; 308.15 K, x1 = 1): 773.91 ± 0.24 kg/m3

CCO [ethanol]
mass density ([1]; 288.15 K): 793.74 ± 0.23 kg/m3 | viscosity ([1]; 288.15 K): 1.309 ± 0.011 mPa·s | mass density ([1]; 298.15 K): 785.17 ± 0.23 kg/m3 | viscosity ([1]; 298.15 K): 1.084 ± 0.009 mPa·s | mass density ([1]; 308.15 K): 776.49 ± 0.24 kg/m3 | viscosity ([1]; 308.15 K): 0.905 ± 0.008 mPa·s | refractive index ([2]; 288.15 K): 1.36342 ± 0.00031 | refractive index ([2]; 298.15 K): 1.35924 ± 0.00031 | refractive index ([2]; 308.15 K): 1.35502 ± 0.00031

CCO [ethanol] + CC(C)=O
refractive index ([3]; 288.15 K, x2 = 0): 1.36342 ± 0.00031 | refractive index ([3]; 298.15 K, x2 = 0): 1.35924 ± 0.00031 | refractive index ([3]; 308.15 K, x2 = 0): 1.35502 ± 0.00031 | viscosity ([4]; 288.15 K, x2 = 0): 1.309 ± 0.011 mPa·s | mass density ([4]; 288.15 K, x2 = 0): 793.74 ± 0.23 kg/m3 | viscosity ([4]; 298.15 K, x2 = 0): 1.084 ± 0.009 mPa·s | mass density ([4]; 298.15 K, x2 = 0): 785.17 ± 0.23 kg/m3 | viscosity ([4]; 308.15 K, x2 = 0): 0.905 ± 0.008 mPa·s | mass density ([4]; 308.15 K, x2 = 0): 776.49 ± 0.24 kg/m3

CCO [ethanol] + CC(C)CC(C)(C)C
refractive index ([3]; 288.15 K, x1 = 1): 1.36342 ± 0.00031 | refractive index ([3]; 298.15 K, x1 = 1): 1.35924 ± 0.00031 | refractive index ([3]; 308.15 K, x1 = 1): 1.35502 ± 0.00031 | viscosity ([4]; 288.15 K, x1 = 1): 1.309 ± 0.011 mPa·s | mass density ([4]; 288.15 K, x1 = 1): 793.74 ± 0.23 kg/m3 | viscosity ([4]; 298.15 K, x1 = 1): 1.084 ± 0.009 mPa·s | mass density ([4]; 298.15 K, x1 = 1): 785.17 ± 0.23 kg/m3 | viscosity ([4]; 308.15 K, x1 = 1): 0.905 ± 0.008 mPa·s | mass density ([4]; 308.15 K, x1 = 1): 776.49 ± 0.24 kg/m3
